Format in all cases: cell-based
Experiment [1] relates to PC-3 (androgen independent prostate cancer cells). In words: Anti-proliferation activity against PC-3 cells. The note with it: for IC50: Homo sapiens; for fold increase in anti-proliferation activity versus the 6-H derivative: PC-3 cells. The protocol:
(§1) Upon completion of synthesis of library of compounds in Examples 23 and 24, the compounds were evaluated for anti-proliferative activity against SkBr3 (Her2 overexpressing breast cancer cells), MCF-7 (estrogen receptor positive breast cancer cells), HCT-116 (colon cancer cells characterized by wild-type p53), PL45 (pancreatic cancer cells), LNCaP (androgen sensitive prostate cancer cells) and PC-3 (androgen independent prostate cancer cells) cell lines. […] The monosubstituted benzamide variants improved activity.
Cells were maintained in a 1:1 mixture of Advanced DMEM/F12 (Gibco) supplemented with non-essential amino acids, L-glutamine (2 mM), streptomycin (500 ng/mL), penicillin (100 units/mL), and 10% FBS. Cells were grown to confluence in a humidified atmosphere (37° C., 5% CO2), seeded (2000/well, 100 μl) in 96-well plates, and allowed to attach overnight. […] […] Cells incubated in 1% DMSO were used at 100% proliferation, and values were adjusted accordingly. IC50 values were calculated from separate experiments performed in triplicate using GraphPad Prism.

Experiment [2] relates to LNCaP (androgen sensitive prostate cancer cells). In words: Anti-proliferation activity against LNCaP cells. The note with it: Homo sapiens, LNCaP; Table 6; 72 hours, MTS/PMS; mean ± standard deviation; read-out: IC50 LnCaP. On the procedure:
as §1
(§2) Cells were maintained in a 1:1 mixture of Advanced DMEM/F12 (Gibco) supplemented with non-essential amino acids, L-glutamine (2 mM), streptomycin (500 ng/mL), penicillin (100 units/mL), and 10% FBS. Cells were grown to confluence in a humidified atmosphere (37° C., 5% CO2), seeded (2000/well, 100 μl) in 96-well plates, and allowed to attach overnight. Compound or GDA at varying concentrations in DMSO (1% DMSO final concentration) was added, and cells were returned to the incubator for 72 hours. At 72 hours, the number of viable cells was determined using an MTS/PMS cell proliferation kit (Promega) per the manufacturer's instructions. Cells incubated in 1% DMSO were used at 100% proliferation, and values were adjusted accordingly. IC50 values were calculated from separate experiments performed in triplicate using GraphPad Prism.

Experiment [3] concerns MCF-7 (estrogen receptor positive breast cancer cells). In words: Anti-proliferation activity against MCF-7 cells (MTS/PMS). On the procedure: (§3) Upon completion of synthesis of library of compounds in Examples 23 and 24, the compounds were evaluated for anti-proliferative activity against SkBr3 (Her2 overexpressing breast cancer cells), MCF-7 (estrogen receptor positive breast cancer cells), HCT-116 (colon cancer cells characterized by wild-type p53), PL45 (pancreatic cancer cells), LNCaP (androgen sensitive prostate cancer cells) and PC-3 (androgen independent prostate cancer cells) cell lines.
as §2
as §2, with “μg/mL),” for “ng/mL),”, “μL)” for “μl)”

Experiment [4] deals with SkBr3 (Her2 overexpressing breast cancer cells). In words: Anti-proliferation activity against SkBr3 cells (MTS/PMS). On the procedure: as §3, §2
as §2, with “μg/mL),” for “ng/mL),”, “μL)” for “μl)”

[5] abbreviates: Homo sapiens, MCF7, Table 6, 72 hours, MTS/PMS, mean ± standard deviation, read-out: IC50 MCF-7.
[6] abbreviates: Homo sapiens, SK-BR-3, Table 6, 72 hours, MTS/PMS, mean ± standard deviation, read-out: IC50 SKBr3.
Setting [7] is: PC-3, Table 6, 72 hours, MTS/PMS, mean ± standard deviation, read-out: IC50 PC-3.
Where [8] appears, read: Table 19, 7-oxyalkylamino and 7-oxypiperidinyl analogues, read-out: IC50, MCF-7.
[9] abbreviates: Table 19, 7-oxyalkylamino and 7-oxypiperidinyl analogues, read-out: IC50, SKBr3.
[10] abbreviates: Homo sapiens, MCF7, Table 19, 7-oxyalkylamino and 7-oxypiperidinyl analogues, read-out: IC50, MCF-7.
[11] abbreviates: Homo sapiens, SK-BR-3, Table 19, 7-oxyalkylamino and 7-oxypiperidinyl analogues, read-out: IC50, SKBr3.
[12] abbreviates: Homo sapiens, MCF7, Table 21, substituted indole-2-carboxamide analogues with noviose replacements, read-out: IC50, MCF-7.
Where [13] appears, read: Homo sapiens, SK-BR-3, Table 21, substituted indole-2-carboxamide analogues with noviose replacements, read-out: IC50, SKBr3.

Structures are written as SMILES. Like-named read-outs stand apart in the source and are kept apart here. A value given as a limit tells only on which side of the number the result lay.

On to `COc1cccc(-c2cc(C(=O)Nc3cc4ccc(OCc5cccnc5)c(C)c4oc3=O)ccc2OC)c1` [3′,6-dimethoxy-N-(8-methyl-2-oxo-7-(pyridin-3-ylmethoxy)-2H-chromen-3-yl)-[1,1′-biphenyl]-3-carboxamide], for which the IC50 in experiment [1] (PC-3, 24 hr., read-out: IC50) amounted to 3800 nM.
Consider `COc1cccc(-c2cc(C(=O)Nc3cc4cc(OC)c(O[C@@H]5OC(C)(C)[C@H](OC)[C@@H](O)[C@H]5O)c(C)c4oc3=O)ccc2OC)c1` [26a, N-(7-((2S,3R,4S,5R)-3,4-dihydroxy-5-methoxy-6,6-dimethyltetrahydro-2H-pyran-2-yloxy)-6-methoxy-8-methyl-2-oxo-2H-chromen-3-yl)-3′,6-dimethoxybiphenyl-3-carboxamide], for which the IC50 in experiment [2] was 6600 nM; in experiment [3] (setting [5]) it was over 100000 nM; in experiment [4] (setting [6]), 58800 ± 1300 nM; in experiment [1] (setting [7]) it was 35400 nM. In addition, in experiment [1], the “fold increase in anti-proliferation activity versus the 6-H derivative” value came out at 2 fold.
Taken in the same sequence, the figures for `CCCOc1cc2cc(NC(=O)c3ccc(OC)c(-c4cccc(OC)c4)c3)c(=O)oc2c(C)c1O[C@@H]1OC(C)(C)[C@H](OC)[C@@H](O)[C@H]1O` [26b, N-(7-((2S,3R,4S,5R)-3,4-dihydroxy-5-methoxy-6,6-dimethyltetrahydro-2H-pyran-2-yloxy)-8-methyl-2-oxo-6-propoxy-2H-chromen-3-yl)-3′,6-dimethoxybiphenyl-3-carboxamide] were 3000 ± 600 nM, over 100000 nM, over 100000 nM, 5600 ± 5700 nM and 10 fold.
Take `CC(=O)Oc1ccc(C(=O)Nc2cc3ccc(OC4CCCN(C)C4)c(C)c3oc2=O)cc1CC=C(C)C` (stereo not shown) [29c, KU-417, 4-(8-Methyl-7-(1-methylpiperidin-3-yloxy)-2-oxo-2H-chromen-3-ylcarbamoyl)-2-(3-methylbut-2-enyl)phenyl acetate]: the figures for the IC50 in experiment [3] (setting [8]) and in experiment [4] (setting [9]) were 1420 ± 20 nM and 1570 ± 50 nM, respectively.
On the same counts, the results for `CC(=O)Oc1ccc(C(=O)Nc2cc3ccc(OCCN(C)C)c(C)c3oc2=O)cc1CC=C(C)C` [29e, KU-421, 4-(7-(2-(Dimethylamino)ethoxy)-8-methyl-2-oxo-2H-chromen-3-ylcarbamoyl)-2-(3-methylbut-2-enyl)phenyl acetate] are 1320 nM and 4760 ± 520 nM.
In the case of `CC(=O)Oc1ccc(C(=O)Nc2cc3ccc(OCCCN(C)C)c(C)c3oc2=O)cc1CC=C(C)C` [29f, KU-406, 4-(7-(3-(Dimethylamino)propoxy)-8-methyl-2-oxo-2H-chromen-3-ylcarbamoyl)-2-(3-methylbut-2-enyl)phenyl acetate], the results for the IC50 in experiment [3] (setting [8]) and in experiment [4] (setting [9]) were 460 ± 190 nM and 1180 ± 30 nM, respectively.
On the same counts, the results for `CC(=O)Oc1ccc(C(=O)Nc2cc3ccc(OC4CCNCC4)c(C)c3oc2=O)cc1CC=C(C)C` [30b, KU-415, 4-(8-methyl-2-oxo-7-(piperidin-4-yloxy)-2H-chromen-3-ylcarbamoyl)-2-(3-methylbut-2-enyl)phenyl acetate] are 770 ± 270 nM and 1530 ± 140 nM.
Taken in the same sequence, the figures for `CC(=O)Oc1ccc(C(=O)Nc2cc3ccc(OC4CCCNC4)c(C)c3oc2=O)cc1CC=C(C)C` (stereo not shown) [30d, KU-419, 4-(8-methyl-2-oxo-7-(piperidin-3-yloxy)-2H-chromen-3-ylcarbamoyl)-2-(3-methylbut-2-enyl)phenyl acetate] were 1230 nM and 1540 ± 110 nM.
Taken in the same sequence, the figures for `CNCCOc1ccc2cc(NC(=O)c3ccc(OC(C)=O)c(CC=C(C)C)c3)c(=O)oc2c1C` [30g, KU-423, 4-(8-methyl-7-(2-(methylamino)ethoxy)-2-oxo-2H-chromen-3-ylcarbamoyl)-2-(3-methylbut-2-enyl)phenyl acetate] were 910 ± 210 nM and 2080 ± 130 nM.
Turning to `CC(C)=CCc1cc(C(=O)Nc2cc3ccc(OC4CCNCC4)c(C)c3oc2=O)ccc1O` [31b, KU-416, 4-Hydroxy-N-(8-methyl-2-oxo-7-(piperidin-4-yloxy)-2H-chromen-3-yl)-3-(3-methylbut-2-enyl)benzamide], the IC50 in experiment [3] (setting [10]) was determined as 470 ± 100 nM; in experiment [4] (setting [11]), 850 ± 90 nM.
Turning to `CC(C)=CCc1cc(C(=O)Nc2cc3ccc(OC4CCCN(C)C4)c(C)c3oc2=O)ccc1O` (stereo not shown) [31c, KU-418, 4-Hydroxy-N-(8-methyl-7-(1-methylpiperidin-3-yloxy)-2-oxo-2H-chromen-3-yl)-3-(3-methylbut-2-enyl)benzamide], the IC50 in experiment [3] (setting [10]) was determined as 4690 ± 160 nM; in experiment [4] (setting [11]), 10100 ± 170 nM.
On to `CC(C)=CCc1cc(C(=O)Nc2cc3ccc(OC4CCCNC4)c(C)c3oc2=O)ccc1O` (stereo not shown) [31d, KU-420, 4-Hydroxy-N-(8-methyl-2-oxo-7-(piperidin-3-yloxy)-2H-chromen-3-yl)-3-(3-methylbut-2-enyl)benzamide], for which the IC50 in experiment [3] (setting [10]) worked out at 790 ± 110 nM; in experiment [4] (setting [11]), 2110 ± 580 nM.
For the compound `CC(C)=CCc1cc(C(=O)Nc2cc3ccc(OCCN(C)C)c(C)c3oc2=O)ccc1O` [31e, KU-422, N-(7-(2-(Dimethylamino)ethoxy)-8-methyl-2-oxo-2H-chromen-3-yl)-4-hydroxy-3-(3-methylbut-2-enyl)benzamide], the values for the IC50 in experiment [3] (setting [10]) and in experiment [4] (setting [11]) were 9450 ± 220 nM and 52700 nM, respectively.
On the same counts, the results for `CC(C)=CCc1cc(C(=O)Nc2cc3ccc(OCCCN(C)C)c(C)c3oc2=O)ccc1O` [31f, KU-407, N-(7-(3-(Dimethylamino)propoxy)-8-methyl-2-oxo-2H-chromen-3-yl)-4-hydroxy-3-(3-methylbut-2-enyl)benzamide] are 440 ± 20 nM and 1350 ± 380 nM.
As for `CNCCOc1ccc2cc(NC(=O)c3ccc(O)c(CC=C(C)C)c3)c(=O)oc2c1C` [31g, KU-424, 4-Hydroxy-N-(8-methyl-7-(2-(methylamino)ethoxy)-2-oxo-2H-chromen-3-yl)-3-(3-methylbut-2-enyl)benzamide], the IC50 in experiment [3] (setting [10]) was 750 ± 120 nM; in experiment [4] (setting [11]), 1330 ± 10 nM.
Turning to `Cc1c(OC2CCN(C)CC2)ccc2cc(NC(=O)c3cc4cc(Cl)ccc4[nH]3)c(=O)oc12` [KU-380], the IC50 came to 90 ± 30 nM in experiment [3] (setting [12]) and 350 ± 210 nM in experiment [4] (setting [13]).
For `COc1cc2cc(NC(=O)c3cc4cc(Cl)ccc4[nH]3)c(=O)oc2c(C)c1OC1CCN(C)CC1` [KU-386], the IC50 came to 4950 ± 450 nM in experiment [3] (setting [12]) and 510 ± 110 nM in experiment [4] (setting [13]).
Regarding `COc1cc2cc(NC(=O)c3cc4cc(Cl)ccc4[nH]3)c(=O)oc2c(C)c1OCCCN(C)C` [KU-395], the IC50 in experiment [3] (setting [12]) turned out to be 1540 ± 150 nM; in experiment [4] (setting [13]) it was 500 ± 10 nM.
For the compound `CC(C)=CCc1cc(C(=O)Nc2cc3ccc(OC4CCN(C)CC4)c(C)c3oc2=O)ccc1OCCN(C)C` [KU-456], the IC50 is 23 nM in experiment [3] (setting [10]) and 510 nM in experiment [4] (setting [11]).
On to `CC(C)=CCc1cc(C(=O)Nc2cc3ccc(OC4CCN(C)CC4)c(C)c3oc2=O)ccc1OCCCN(C)C` [KU-457], for which the IC50 in experiment [3] (setting [10]) was 90 nM; in experiment [4] (setting [11]), 350 ± 80 nM.
Taken in the same sequence, the figures for `CC(C)=CCc1cc(C(=O)Nc2cc3ccc(OC4CCN(C)CC4)c(C)c3oc2=O)ccc1OC1CCN(C)CC1` [KU-458] were 150 nM and 95 nM.
On the same counts, the results for `COc1c(OC2CCN(C)CC2)ccc2cc(NC(=O)c3ccc(OCCN(C)C)c(CC=C(C)C)c3)c(=O)oc12` [KU-459] are 90 nM and 290 nM.

These data come from patent publication US9120774B2 (University of Kansas, priority 2009, dated 2015).
